In paper PMC7376644 (Pharmacology Research & Perspectives, 2020):
Values joined by “and” are separate entries in the source; they are usually repeats but may differ in a detail not shown here. Equal values may be shown once. Read-outs that look alike come from different tables or passages of the source.

Experiments:
[1] = PZQ-ketoconazole DDI pharmacokinetic study in healthy volunteers; format: in vivo, human; details: for AUC(0-inf) / AUC / CL/F / k el / half-life / Tmax / Vd/F: male, human, plasma
Experimental: Plasma samples were obtained from the AiBST biobank. […] Each participant served as their own control. Each participant provided written informed consent to take part in the study and the study was carried out according to Helsinki Declaration of 1975, as revised in 2008. The study was approved by the Medical Research Council of Zimbabwe (MRCZ) and the Medicines Controls Authority of Zimbabwe (MCAZ). […] The samples were vortexed for 30 seconds and left under gentle agitation for 25 minutes. […] From the supernatant, 20 μL was injected onto the chiral HPLC system for analysis. […] Detection was done using a UV diode array detector at 210 nm. […] The data were gathered and processed using Agilent OpenLab CDS for Chemstation software version 1.9. Linear calibration curves were plotted as concentration vs peak area ratio for analyte to IS with no weighting. […] The pharmacokinetic (PK) analysis was performed using the WinNonlin program, version 8.2 (Pharsight Corp). […] A non-compartmental approach was used for curve plotting and parameter calculation. The area under the curve (AUC) from time 0 to the last sampling time point (AUCt) was computed using the log-linear trapezoidal rule. The linear trapezoidal rule was used for the ascending part of the PK curve, while the log trapezoidal rule was used for the descending part of the graph. The AUC extrapolated to infinite time was calculated as AUC∞ = AUCt + Ct/K el where Ct is the concentration of the last sample taken and K el is the terminal elimination rate constant. The terminal elimination rate constant K el was determined by least squares regression analysis in the terminal phase of the semi log concentration-time curve. […] Statistical analysis was performed using the GraFit software (version 3.0, Erithacus Software Limited). […] Analysis of variance (ANOVA) was performed on the AUC and C max after transformation of the data to their natural logarithmic (ln) values.

CYP2C19 [2] = biological target: T1, CYP2C19 (Homo sapiens, UniProt P33261); test: Enzyme kinetics of hydroxylated metabolites formation; format: in vitro ADME; parameters: purchased CYPEX CYP008; host or cells: Escherichia coli; details: CYP2C19, formation of cis‐4‐OH‐PZQ
T1 sequence (P33261 whole entry): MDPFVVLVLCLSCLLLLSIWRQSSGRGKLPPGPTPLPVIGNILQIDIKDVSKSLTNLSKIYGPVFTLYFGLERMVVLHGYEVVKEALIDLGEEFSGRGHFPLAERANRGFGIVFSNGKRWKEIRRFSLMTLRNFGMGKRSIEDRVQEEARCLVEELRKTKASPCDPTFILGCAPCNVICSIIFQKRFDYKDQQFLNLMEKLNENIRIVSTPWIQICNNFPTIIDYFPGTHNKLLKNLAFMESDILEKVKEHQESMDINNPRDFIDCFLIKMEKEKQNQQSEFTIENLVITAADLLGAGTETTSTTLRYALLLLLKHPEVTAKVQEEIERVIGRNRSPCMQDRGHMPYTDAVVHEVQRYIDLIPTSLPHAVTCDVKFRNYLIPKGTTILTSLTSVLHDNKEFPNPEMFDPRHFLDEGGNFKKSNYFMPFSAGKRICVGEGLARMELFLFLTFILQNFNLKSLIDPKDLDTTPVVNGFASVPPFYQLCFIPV
Experimental: The reactions were carried out in duplicate at each time point. Incubation conditions used for the determination of K M and V max were optimized for linearity with respect to time and protein concentrations. […] Metabolites were analyzed by LC‐MS/MS as described below. The K M and V max values of each marker substrate were determined using nonlinear least squares regression analysis in GraFit software (version 3.0, Erithacus Software Limited) and SigmaPlot Enzyme Kinetics Module for Windows 7.0 (SPSS, Inc).
(§1) The well‐stirred model was used to estimate the hepatic clearance (CLH) due to metabolism.

HLM [3] = test: Intrinsic clearance, substrate depletion approach; format: in vitro ADME, human; details: substrate depletion
Experimental: (§2) The generic conditions were previously described by Masimirembwa and co‐workers. ^24 , ^25 Each reaction mixture consisted of substrate incubated with appropriate enzyme, substrate, and NADPH in potassium phosphate buffer pH 7.4 in a final volume of 200 µL. The substrate was diluted to 40% ACN so that the percent organic component in the final solution was maintained at 1%. The reactions were quenched with 3 volumes of stop solution containing ACN and 0.8% formic acid at 0, 5, 10, 20, 30, 40, and 60 minutes. This was followed by centrifugation at 4500 g for 20 minutes. An aliquot (50 µL) supernatant was collected and diluted (1:1) in water prior to LC‐MS/MS analysis.
(§3) Each reaction was monitored over 7 time points.
as §1

[4] = Intrinsic clearance, substrate depletion approach; format: in vitro ADME, human; details: human, human liver microsomes, pH 7.4; HLM, 1 µmol/L substrate
Experimental: as §2, §3, §1

HLM [5] = test: Enzyme kinetics of hydroxylated metabolites formation; format: in vitro ADME, human
Experimental: The reactions were carried out in duplicate at each time point. Incubation conditions used for the determination of K M and V max were optimized for linearity with respect to time and protein concentrations. […] Metabolites were analyzed by LC‐MS/MS as described below. The K M and V max values of each marker substrate were determined using nonlinear least squares regression analysis in GraFit software (version 3.0, Erithacus Software Limited) and SigmaPlot Enzyme Kinetics Module for Windows 7.0 (SPSS, Inc). […]

CYP2C19 [6] = biological target: T1, CYP2C19; test: in vitro; details: recombinant CYP2C19, pH 7.4
[7] = PZQ + ketoconazole vs PZQ alone
[8] = single oral 20 mg/kg PZQ alone, n = 9, listed as R‐Praziquantel, 20 mg/kg

## O=C(C1CCCCC1)N1CC(=O)N2CCc3ccccc3[C@@H]2C1 [R‐PZQ, R‐Praziquantel]
[1]; 20 mg/kg PZQ plus 200 mg ketoconazole, n = 9
  Clearance/F, treatment mean (SD): 1146 (992.1) L/h
[1]; PZQ + KTZ vs PZQ alone
  Decrease of mean C max with KTZ: 11.85%
[1]; [7]
  AUCinf, difference observed %: 9% and 9.26%
  AUCt0‐tlast, difference observed %: −14.68%
  C max, difference observed %: −11.85%
  Clearance/F, difference observed %: 26.99%
  Elimination rate constant, difference observed %: −4.350%
  Half life, difference observed %: 79.64%
  T max, difference observed %: −46.33%
  V d/F, difference observed %: 74.87%
[1]; PZQ + ketoconazole vs PZQ alone, listed as R‐Praziquantel
  AUCinf, difference observed %: 9.290%
[1]; oral, 20 mg/kg, 20 mg/kg PZQ plus 200 mg ketoconazole, n = 9, read-out: AUCinf, treatment geo mean
  AUC(0-inf): 1290 ng·h/mL
[1]; oral, 20 mg/kg, 20 mg/kg PZQ plus 200 mg ketoconazole, n = 9, read-out: AUCinf, treatment mean (SD)
  AUC(0-inf): 1470 ng·h/mL
[1]; oral, 20 mg/kg, 20 mg/kg PZQ plus 200 mg ketoconazole, n = 9, read-out: AUCt0‐tlast, treatment geo mean
  AUC: 945 ng·h/mL
[1]; oral, 20 mg/kg, 20 mg/kg PZQ plus 200 mg ketoconazole, n = 9, read-out: Clearance/F, treatment geo mean (converted)
  CL/F: 15300 mL/min
[1]; oral, 20 mg/kg, 20 mg/kg PZQ plus 200 mg ketoconazole, n = 9, read-out: Clearance/F, treatment mean (SD) (converted)
  CL/F: 19100 mL/min
[1]; oral, 20 mg/kg, 20 mg/kg PZQ plus 200 mg ketoconazole, n = 9, read-out: Elimination rate constant, treatment geo mean (converted)
  k el: 4.44e-05 s⁻¹
[1]; oral, 20 mg/kg, 20 mg/kg PZQ plus 200 mg ketoconazole, n = 9, read-out: Elimination rate constant, treatment mean (SD) (converted)
  k el: 6.11e-05 s⁻¹
[1]; oral, 20 mg/kg, 20 mg/kg PZQ plus 200 mg ketoconazole, n = 9, read-out: Half life, treatment geo mean (converted)
  half-life: 248 min
[1]; oral, 20 mg/kg, 20 mg/kg PZQ plus 200 mg ketoconazole, n = 9, read-out: Half life, treatment mean (SD) (converted)
  half-life: 360 min
[1]; oral, 20 mg/kg, 20 mg/kg PZQ plus 200 mg ketoconazole, n = 9, read-out: T max, treatment geo mean
  Tmax: 1.53 h
[1]; oral, 20 mg/kg, 20 mg/kg PZQ plus 200 mg ketoconazole, n = 9, read-out: T max, treatment mean (SD)
  Tmax: 1.61 h
[1]; oral, 20 mg/kg, 20 mg/kg PZQ plus 200 mg ketoconazole, n = 9, read-out: V d/F, treatment geo mean
  Vd/F: 5480 L
[1]; oral, 20 mg/kg, 20 mg/kg PZQ plus 200 mg ketoconazole, n = 9, read-out: V d/F, treatment mean (SD)
  Vd/F: 7880 L
[1]; oral, 20 mg/kg, AUC, PZQ alone
  AUC: 1350 ± 1470 ng·h/mL
[1]; oral, 20 mg/kg, read-out: AUC from the in vivo pharmacokinetic study
  AUC: 2400 ng·h/mL
[1]; oral, AUC, PZQ + KTZ
  AUC: 1470 ± 767 ng·h/mL
[1]; po, 20 mg/kg, single oral 20 mg/kg PZQ alone, n = 9, read-out: AUCinf, reference geo mean
  AUC(0-inf): 1300 ng·h/mL
[1]; po, 20 mg/kg, single oral 20 mg/kg PZQ alone, n = 9, read-out: AUCinf, reference mean (SD)
  AUC(0-inf): 1340 ng·h/mL
[1]; po, 20 mg/kg, single oral 20 mg/kg PZQ alone, n = 9, read-out: AUCt0‐tlast, reference geo mean
  AUC: 1120 ng·h/mL
[1]; po, 20 mg/kg, single oral 20 mg/kg PZQ alone, n = 9, read-out: AUCt0‐tlast, reference mean (SD)
  AUC: 1240 ng·h/mL
[1]; po, 20 mg/kg, single oral 20 mg/kg PZQ alone, n = 9, read-out: Clearance/F, reference geo mean (converted)
  CL/F: 14600 mL/min
[1]; po, 20 mg/kg, single oral 20 mg/kg PZQ alone, n = 9, read-out: Clearance/F, reference mean (SD) (converted)
  CL/F: 15000 mL/min
[1]; po, 20 mg/kg, single oral 20 mg/kg PZQ alone, n = 9, read-out: Elimination rate constant, reference geo mean (converted)
  k el: 6.11e-05 s⁻¹
[1]; po, 20 mg/kg, single oral 20 mg/kg PZQ alone, n = 9, read-out: Elimination rate constant, reference mean (SD) (converted)
  k el: 6.39e-05 s⁻¹
[1]; po, 20 mg/kg, single oral 20 mg/kg PZQ alone, n = 9, read-out: Half life, reference geo mean (converted)
  half-life: 193 min
[1]; po, 20 mg/kg, single oral 20 mg/kg PZQ alone, n = 9, read-out: Half life, reference mean (SD) (converted)
  half-life: 200 min
[1]; po, 20 mg/kg, single oral 20 mg/kg PZQ alone, n = 9, read-out: T max, reference geo mean
  Tmax: 2.59 h
[1]; po, 20 mg/kg, single oral 20 mg/kg PZQ alone, n = 9, read-out: T max, reference mean (SD)
  Tmax: 3 h
[1]; po, 20 mg/kg, single oral 20 mg/kg PZQ alone, n = 9, read-out: V d/F, reference geo mean
  Vd/F: 4050 L
[1]; po, 20 mg/kg, single oral 20 mg/kg PZQ alone, n = 9, read-out: V d/F, reference mean (SD)
  Vd/F: 4510 L
[1]; single oral 20 mg/kg PZQ alone, n = 9, 20 mg/kg
  Clearance/F, reference mean (SD): 902.09 ± 264 L/h
[1]; [8]
  C max, reference mean (SD): 313.1 (131.1) ng/mL
  Clearance/F, reference mean (SD): 902.1 (264.9) L/h
CYP2C19 [2]
  CLuH,int: 4.60 mL/min/kg and 4.600 mL/min/kg
HLM [3]; HLM
  Predicted CLuH,int: 172.0 mL/min/kg
HLM [3]; HLM, well‐stirred model
  Predicted CLH: 13.06 mL/min/kg
HLM [3]
  Clearance class, HLM‐mediated: high
[4]
  half-life at 1 µmol/L: 11.5 min
HLM [5]; formation of X‐OH‐PZQ
  K M [SD]: 29.30 [4.020] µmol/L
  V max [SD]: 1.2 nmol/min/mg protein and 1.200 [0.06266] nmol/min/mg protein
HLM [5]; formation of cis‐4‐OH‐PZQ
  K M [SD]: 38.90 [5.469] µmol/L
  V max [SD]: 0.7572 [0.0447] nmol/min/mg protein
CYP2C19 [6]
  half-life at 1 µmol/L: 3.6 min
